Patent publication US20090318446A1, “4-(1H-Indol-3-yl)-Pyrimidin-2-Ylamine Derivatives and Their Use in Therapy” (Cyclacel Limited, priority 2005, published 2009)

Legend:
aurora-A = biological target: T1, aurora-A (Homo sapiens, UniProt O14965); assay: Aurora-A (human) kinase assay; format: biochemical; settings: Table 3, values without asterisk; read-out: Kinase inhibition Aurora A
T1 construct: purchased Upstate, Dundee, UK
T1 sequence (O14965 1-403): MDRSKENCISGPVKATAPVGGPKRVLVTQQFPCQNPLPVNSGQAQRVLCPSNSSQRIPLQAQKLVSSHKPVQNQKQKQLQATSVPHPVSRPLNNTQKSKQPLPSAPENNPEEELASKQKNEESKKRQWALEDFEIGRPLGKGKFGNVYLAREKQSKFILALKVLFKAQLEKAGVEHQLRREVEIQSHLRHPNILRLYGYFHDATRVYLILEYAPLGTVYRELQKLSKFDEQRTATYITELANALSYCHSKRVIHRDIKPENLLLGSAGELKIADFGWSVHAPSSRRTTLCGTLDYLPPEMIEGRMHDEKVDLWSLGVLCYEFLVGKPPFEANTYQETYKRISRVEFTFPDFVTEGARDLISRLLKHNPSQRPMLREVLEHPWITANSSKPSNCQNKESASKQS
Experimental: (§1) This was achieved by measurement of incorporation of radioactive phosphate from ATP into Kemptide substrate (LRRASLG), upon phosphorylation by commercially obtained aurora-A (human, Upstate, Dundee, UK). Assays were performed using 96-well plates and appropriate assay buffers (20 mM Tris, 25 mM β-glycerophosphate, 5 mM EGTA, 1 mM DTT, 1 mM sodium vanadate, pH 7.5), into which were added 2-5 ng of active enzyme with 500 μM substrate (Kemptide). The reactions were initiated by addition of MgATP mix (15 mM MgCl2+100 μM ATP with 15-25 kBq per well of [γ-^32P]-ATP) and mixtures incubated for 30 min at 30° C. Reactions were stopped by addition of an equal volume of 75 mM aq orthophosphoric acid, followed by filtration through p81 filterplates (Whatman Polyfiltronics, Kent, UK). After washing 4 times with 75 mM aq orthophosphoric acid, plates were dried, scintillant added and incorporated radioactivity measured in a scintillation counter (TopCount, Packard Instruments, Pangbourne, Berks, UK). Compounds for kinase assay were made up as 10 mM stocks in DMSO and diluted into 10% DMSO in assay buffer. Data was analysed using curve-fitting software (XLfit version 4.0.2, IDBS, Guildford, Surrey, UK) to determine IC50 values (concentration of test compound which inhibits kinase activity by 50%).

Mia-PaCa-2 = assay: MTT cytotoxicity assay, Mia-PaCa-2; format: cell-based; settings: Homo sapiens, after incubation
Experimental: (§2) The compounds of the invention were subjected to a standard cellular proliferation assay using human tumour cell lines obtained from the ATCC (American Type Culture Collection, 10801 University Boulevard, Manessas, Va. 20110-2209, USA). […] C.; Thomas, D. G.; Darling, J. L. Anti Cancer Drugs 1996, 7, 331-8; Loveland, B. E.; Johns, T. G.; Mackay, 1. R.; Vaillant, F.; Wang, Z. X.; Hertzog, P. J. Biochemistry International 1992, 27, 501-10). In short: cells were seeded into 96-well plates according to doubling time and incubated overnight at 37° C. […] MTT was made up as a stock of 5 mg/mL in cell media and filter-sterilised. Media was removed from cells followed by a wash with 200 μL PBS. MTT solution was then added at 20 μL per well and incubated in the dark at 37° C. for 4 h MTT solution was removed and cells again washed with 200 μL PBS. MTT dye was solubilised with 200 μL per well of DMSO with agitation. Absorbance was read at 540 nm and data analysed using curve-fitting software (GraphPad Prism version 3.00 for Windows, GrapbPad Software, San Diego Calif. USA) to determine IC50 values (concentration of test compound which inhibits cell growth by 50%).

A2780 = assay: MTT cytotoxicity assay, A2780; format: cell-based; settings: Homo sapiens, after incubation
Experimental: as §2

aurora-B = biological target: T2, aurora-B (Homo sapiens, UniProt Q96GD4); assay: Aurora-B (human) kinase assay; format: biochemical; settings: Table 3; read-out: Kinase inhibition Aurora B
T2 construct: purchased Upstate, Dundee, UK
Experimental: as §1, with “obtained aurora-B” for “obtained aurora-A”, “added 75” for “added 2-5”, “of pre-activated” for “of active”, “for 60” for “for 30”
Aurora-B (human, Upstate, Dundee, UK) was pre-activated immediately prior to kinase assay in appropriate buffers (20 mM Tris, 25 mM β-glycerophosphate, 5 mM EGTA, 1 mM DTT, 1 mM sodium vanadate, pH 7.5) by incubating 15 μg of enzyme with 4 μg INCENP (Upstate, Dundee, UK) in the presence of MgATP mix (15 mM MgCl2+100 μM ATP) for 15 min at 30° C.

T2 sequence (Q96GD4 whole entry): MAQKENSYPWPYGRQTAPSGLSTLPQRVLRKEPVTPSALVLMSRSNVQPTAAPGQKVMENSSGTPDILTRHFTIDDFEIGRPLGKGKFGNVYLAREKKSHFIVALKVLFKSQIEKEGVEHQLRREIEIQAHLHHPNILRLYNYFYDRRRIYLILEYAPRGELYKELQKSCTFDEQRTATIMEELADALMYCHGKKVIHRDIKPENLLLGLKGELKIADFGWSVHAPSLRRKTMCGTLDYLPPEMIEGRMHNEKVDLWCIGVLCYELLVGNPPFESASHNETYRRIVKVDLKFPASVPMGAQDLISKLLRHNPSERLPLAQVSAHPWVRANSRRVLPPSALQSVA

IC50 (aurora-A)	SMILES	also measured
563 nM	COc1cc(Nc2nccc(-c3c[nH]c4ccccc34)n2)cc(OC)c1 [Compound 14, N-(3,5-dimethoxyphenyl)-4-(1H-indol-3-yl)pyrimidin-2-amine]	
370 nM	Cn1cc(-c2ccnc(Nc3ccc(N4CCOCC4)cc3)n2)c2ccccc21 [Compound 15, 4-(1-methyl-1H-indol-3-yl)-N-(4-morpholin-4-ylphenyl)pyrimidin-2-amine]	
235 nM	CC(=O)N1CCN(c2ccc(Nc3nccc(-c4cn(C)c5ccccc45)n3)cc2)CC1 [Compound 16, 4-(1-methyl-1H-indol-3-yl)-N-(4-acetylpiperazine-1-ylphenyl)pyrimidin-2-amine]	
742 nM	c1ccc2c(-c3ccnc(Nc4ccc5c(c4)OCO5)n3)c[nH]c2c1 [Compound 17, N-1,3-benzodioxol-5-yl-4-(1H-indol-3-yl)pyrimidin-2-amine]	
3360 nM	O=C(C1CC1)n1cc(-c2ccnc(Nc3ccc(N4CCOCC4)cc3)n2)c2ccccc21 [Compound 18, 4-[1-(cyclopropylcarbonyl)-1H-indol-3-yl]-N-(4-morpholin-4-ylphenyl)pyrimidin-2-amine]	
2190 nM	CC(=O)n1cc(-c2ccnc(Nc3ccc(N4CCOCC4)cc3)n2)c2ccccc21 [Compound 19, 4-(1-acetyl-1H-indol-3-yl)-N-(4-morpholin-4-ylphenyl)pyrimidin-2-amine]	
434 nM	CN1CCN(c2ccc(Nc3nccc(-c4c[nH]c5ccccc45)n3)cc2)CC1 [Compound 20, 4-(1H-indol-3-yl)-N-(4-methylpiperazin-1-ylphenyl)pyrimidin-2-amine]	
234 nM	COc1cccc2c(-c3ccnc(Nc4ccc(N5CCN(C(C)=O)CC5)cc4)n3)c[nH]c12 [Compound 21, 4-(7-methoxy-1H-indol-3-yl)-N-(4-acetylpiperazin-1-ylphenyl)pyrimidin-2-amine]	IC50 (Mia-PaCa-2): 1040 nM
210 nM	COc1ccc2c(-c3ccnc(Nc4ccc(N5CCN(C(C)=O)CC5)cc4)n3)c[nH]c2c1 [Compound 24]	IC50 (Mia-PaCa-2): 723 nM; IC50 (A2780): 576 nM
559 nM	CC(=O)N1CCN(c2ccc(Nc3nccc(-c4c[nH]c5c(Cl)cccc45)n3)cc2)CC1 [Compound 25]	
194 nM	CC(=O)N1CCN(c2ccc(Nc3nccc(-c4c[nH]c5cc(F)ccc45)n3)cc2)CC1 [Compound 26]	IC50 (aurora-B): 175 nM
276 nM	CC(=O)N1CCN(c2ccc(Nc3nccc(-c4c[nH]c5ccccc45)n3)cc2C)CC1 [Compound 27, 4-(1H-indol-3-yl)-N-[(4-acetylpiperazin-1-yl)-3-methylphenyl]pyrimidin-2-amine]	IC50 (aurora-B): 365 nM
856 nM	Cc1cc(Nc2nccc(-c3c[nH]c4ccccc34)n2)ccc1N1CCSCC1 [Compound 28, 4-(1H-indol-3-yl)-N-(3-methyl-4-thiomorpholin-4-ylphenyl)pyrimidin-2-amine]	IC50 (aurora-B): 636 nM
386 nM	C[C@@H]1CN(c2ccc(Nc3nccc(-c4c[nH]c5ccccc45)n3)cc2)C[C@H](C)O1 [Compound 29, 4-(1H-indol-3-yl)-N-[(2R,6S)-2,6-dimethylmorpholin-4-ylphenyl]pyrimidin-2-amine]	
1250 nM	C[C@H]1CN(c2ccc(Nc3nccc(-c4c[nH]c5ccccc45)n3)cc2)C[C@H](C)O1 [Compound 30, 4-(1H-indol-3-yl)-N-[(2S,6S)-2,6-dimethylmorpholin-4-ylphenyl]pyrimidin-2-amine]	
4510 nM	CC1CC(C)CN(c2ccc(Nc3nccc(-c4c[nH]c5ccccc45)n3)cc2)C1 (stereo not shown) [Compound 31, 4-(1H-indol-3-yl)-N-(3,5-dimethylpiperidin-1-ylphenyl)pyrimidin-2-amine]	
